Data on 25 compounds can be found in patent publication US11578087B2, “Oxaborole esters and uses thereof” (priority 2016, dated 2023).

The test system of experiment [1] is T. cruzi amastigote (Td Tomato-modified) in Vero cells. Description: In vitro IC50 measurement of T. cruzi amastigote killing using Td Tomato-modified T. cruzi. The experiment is classed as cell-based. The conditions noted are these: Trypanosoma cruzi, 72 h, fluorescence, read-out: IC50: I Org. amastigote Growth T. cruzi 3 d. The method, then: Example 254. In Vitro IC50 Measurement of T. cruzi Amastigote Killing Using Td Tomato-Modified T. cruzi
The T. cruzi parasites used in this assay were genetically modified to express Td Tomato fluorescent protein. Vero cells (African green monkey kidney epithelial cells) were harvested from continuous cultures using trypsin and added to the inner 60 wells of 96-well Greiner Bio One plates (plate catalog #655090) at 200 ul/well of […]. Cells were allowed to adhere for 1 h before infection with T. cruzi. T. cruzi for infection were harvested from previously-infected Vero cells, washed, pelleted and resuspended at 5×10^6/mL. 50 uL of parasites were added to each well containing Vero cells. Compounds were prepared from 5 mM stock concentrations in DMSO to final concentrations in wells ranging from 5 uM to 5 nM. Wells were provided for negative controls, lacking compounds. Plates were placed into a 37° C. incubator for 20 min, then a “Day 0” reading was taken on a Synergy H4 plate reader to record initial fluorescence levels, at 544 (excitation) and 612 nm (emission). 96-well plates were placed in Tupperware containers with wet paper towels and incubated at 37° C. incubator for 72 h. After 72 h plates were reread (Day 3 reading) and data analyzed using Excel and/or Graphpad software. Day 0 fluorescence was subtracted from Day 3 to remove input parasite fluorescence. Growth curves are generated and 50% and 90% inhibitory concentrations are determined by nonlinear regression analysis.

Experiment [2] has as its system IL3000 T. congolense (drug sensitive) strain. The experiment in a line: In vitro Alamar Blue 72 h drug sensitivity assay for T. congolense. The experiment is classed as cell-based, Trypanosoma congolense. The conditions noted are these: Trypanosoma congolense, 72 h, bloodstream form, 69 h + 3 h Resazurin, 34° C., read-out: IC50: I Org. Growth T. congolense 3 d. Here is the method: Example 252. In Vitro Alamar Blue 72 h Drug Sensitivity Assay for T. congolense
Compounds were tested in vitro for chemotherapeutic potency against the IL3000 T. congolense (drug sensitive) strain, using the Alamar Blue assay with several modifications. Test compounds were prepared as 10 mg/mL DMSO stocks for each assay run. Compounds were assayed in at least three separate, independent test runs and an 11-point dilution curve was used to determine the IC50 values. Bloodstream form trypanosomes were supported in HMI media containing 20% bovine serum and were incubated with test compounds for 69 h at 34° C. in a humidified atmosphere containing 5% CO2. Thereafter, 10 μL of Resazurin dye (12.5 mg in 100 mL of phosphate buffered saline, Sigma-Aldrich, Buchs, Switzerland) were added for an additional 3 h. Plates were then read using a fluorescent plate reader (Spectramax, Gemini XS, Bucher Biotec, Basel, Switzerland) using an excitation wavelength of 536 nm and an emission wavelength of 588 nm. Data points were averaged to generate sigmoidal dose-response curves and IC50 values were determined using Softmax Pro 5.2 software.

Molecules are shown by their SMILES. A value given as a limit tells only on which side of the number the result lay.

On to `Cc1c(C(=O)N[C@H](C(=O)OCc2cccc(C#N)c2)C(C)C)ccc2c1B(O)OC2` [Example 6-047, 3-Cyanobenzyl (1-hydroxy-7-methyl-1,3-dihydrobenzo[c][1,2]oxaborole-6-carbonyl)-L-valinate], for which the IC50 is at most 20 nM in experiment [1] and below 0.5 nM in experiment [2]. The like results for `CC(C)[C@H](NC(=O)c1ccc2c(c1)B(O)OC2)C(=O)O[C@@H](C)c1ccccc1` [Example 6-023, (S)-1-Phenylethyl (1-hydroxy-1,3-dihydrobenzo[c][1,2]oxaborole-6-carbonyl)-L-valinate] were, in that order, at least 1000 nM and 10 to 5000 nM. With `Cc1c(C(=O)N[C@H](C(=O)OCc2ncc[nH]2)C(C)C)ccc2c1B(O)OC2` [Example 6-143, (1H-Imidazol-2-yl)methyl (1-hydroxy-7-methyl-1,3-dihydrobenzo[c][1,2]oxaborole-6-carbonyl)-L-valinate], the IC50 is at least 1000 nM in experiment [1] and 10 to 5000 nM in experiment [2].

For `Cc1c(C(=O)N[C@H](C(=O)OCc2cccc(C(F)(F)F)c2)C(C)C)ccc2c1B(O)OC2` [Example 6-046, 3-Trifluoromethylbenzyl (1-hydroxy-7-methyl-1,3-dihydrobenzo[c][1,2]oxaborole-6-carbonyl)-L-valinate], the IC50 in experiment [1] was at most 20 nM; in experiment [2], below 0.5 nM.

With `Cc1c(C(=O)N[C@H](C(=O)OCc2cncs2)C(C)C)ccc2c1B(O)OC2` [Example 6-120, Thiazol-5-ylmethyl (1-hydroxy-7-methyl-1,3-dihydrobenzo[c][1,2]oxaborole-6-carbonyl)-L-valinate], the IC50 in experiment [1] was in the range of 21 to 999 nM; in experiment [2], 0.51 to 9.99 nM.

`CCOc1c(C(=O)N[C@H](C(=O)OCc2ccccc2)C(C)C)ccc2c1B(O)OC2` [Example 6-192, Benzyl (7-ethoxy-1-hydroxy-1,3-dihydrobenzo[c][1,2]oxaborole-6-carbonyl)-L-valinate]: the IC50 in experiment [1] was at least 1000 nM; in experiment [2] it was 0.51 to 9.99 nM. Take `COCC1(COC(=O)[C@@H](NC(=O)c2ccc3c(c2C)B(O)OC3)C(C)C)CCOCC1` [Example 6-152, (4-(Methoxymethyl)tetrahydro-2H-pyran-4-yl)methyl (1-hydroxy-7-methyl-1,3-dihydrobenzo[c][1,2]oxaborole-6-carbonyl)-L-valinate]: the half-maximal inhibitory concentration (IC50) in experiment [1] is 21 to 999 nM; in experiment [2] it was below 0.5 nM. As to `Cc1c(C(=O)N[C@H](C(=O)OCc2ccc(Cl)cc2)C(C)C)ccc2c1B(O)OC2` [Example 6-040, 4-Chlorobenzyl (1-hydroxy-7-methyl-1,3-dihydrobenzo[c][1,2]oxaborole-6-carbonyl)-L-valinate], the IC50 was at most 20 nM in experiment [1] and below 0.5 nM in experiment [2]. With `Cc1c(C(=O)N[C@H](C(=O)OCCN2CCOCC2)C(C)C)ccc2c1B(O)OC2` [Example 6-170, 2-Morpholinoethyl (1-hydroxy-7-methyl-1,3-dihydrobenzo[c][1,2]oxaborole-6-carbonyl)-L-valinate], the figures for the IC50 in experiment [1] and in experiment [2] were 21 to 999 nM and 0.51 to 9.99 nM, respectively.

On to `Cc1c(C(=O)N[C@H](C(=O)OCc2ccc(OCCN3CCCC3)c(F)c2)C(C)C)ccc2c1B(O)OC2` [Example 6-242, 3-Fluoro-4-(2-(pyrrolidin-1-yl)ethoxy)benzyl (1-hydroxy-7-methyl-1,3-dihydrobenzo[c][1,2]oxaborole-6-carbonyl)-L-valinate], for which the IC50 in experiment [1] is at most 20 nM; in experiment [2], 0.51 to 9.99 nM.

For `Cc1c(C(=O)N[C@H](C(=O)OCc2ccc(F)cc2)[C@@H](C)O)ccc2c1B(O)OC2` [Example 6-074, 4-Fluorobenzyl (1-hydroxy-7-methyl-1,3-dihydrobenzo[c][1,2]oxaborole-6-carbonyl)-L-threoninate], the results for the IC50 in experiment [1] and in experiment [2] were 21 to 999 nM and below 0.5 nM, respectively.

On to `Cc1c(C(=O)N[C@H](C(=O)OCc2ccc(F)c(F)c2)C(C)(C)O)ccc2c1B(O)OC2` [Example 6-098, 3,4-Difluorobenzyl (S)-3-hydroxy-2-(1-hydroxy-7-methyl-1,3-dihydrobenzo[c][1,2]oxaborole-6-carboxamido)-3-methylbutanoate], for which the IC50 in experiment [1] was at most 20 nM; in experiment [2] it was below 0.5 nM. In the case of `Cc1c(C(=O)N[C@H](C(=O)OCc2ccncc2)C(C)C)ccc2c1B(O)OC2` [Example 6-190, Pyridin-4-ylmethyl (1-hydroxy-7-methyl-1,3-dihydrobenzo[c][1,2]oxaborole-6-carbonyl)-L-valinate], the half-maximal inhibitory concentration (IC50) in experiment [1] was in the range of 21 to 999 nM; in experiment [2], 0.51 to 9.99 nM. As to `Cc1c(C(=O)N[C@H](C(=O)OCC2(F)CCOCC2)C(C)C)ccc2c1B(O)OC2` [Example 6-226, (4-fluorotetrahydro-2H-pyran-4-yl)methyl (1-hydroxy-7-methyl-1,3-dihydrobenzo[c][1,2]oxaborole-6-carbonyl)-L-valinate], the IC50 in experiment [1] is at most 20 nM; in experiment [2], below 0.5 nM. On the same counts, the results for `Cc1c(C(=O)N[C@H](C(=O)OCC2COC2)C(C)C)ccc2c1B(O)OC2` [Example 6-150, Oxetan-3-ylmethyl (1-hydroxy-7-methyl-1,3-dihydrobenzo[c][1,2]oxaborole-6-carbonyl)-L-valinate] are 21 to 999 nM and 0.51 to 9.99 nM.

As for `Cc1c(C(=O)N[C@H](C(=O)OCC(C)(C)O)C(C)C)ccc2c1B(O)OC2` [Example 6-211, 2-hydroxy-2-methylpropyl (1-hydroxy-7-methyl-1,3-dihydrobenzo[c][1,2]oxaborole-6-carbonyl)-L-valinate], the results for the IC50 in experiment [1] and in experiment [2] were 21 to 999 nM and 0.51 to 9.99 nM, respectively. `Cc1c(C(=O)N[C@H](C(=O)OCc2cc(C(F)(F)F)ncn2)C(C)C)ccc2c1B(O)OC2` [Example 6-161, (6-(trifluoromethyl)pyrimidin-4-yl)methyl (1-hydroxy-7-methyl-1,3-dihydrobenzo[c][1,2]oxaborole-6-carbonyl)-L-valinate]: the IC50 in experiment [1] was at most 20 nM; in experiment [2], below 0.5 nM. Regarding `Cc1c(C(=O)N[C@H](C(=O)O[C@H](C)c2ccccc2)C(C)C)ccc2c1B(O)OC2` [Example 6-198, (R)-1-phenylethyl (1-hydroxy-7-methyl-1,3-dihydrobenzo[c][1,2]oxaborole-6-carbonyl)-L-valinate], in experiment [1], the IC50 was at most 20 nM.

With `Cc1c(C(=O)NC2(C(=O)OCc3ccc(F)cc3)CC2)ccc2c1B(O)OC2` [Example 6-068, 4-Fluorobenzyl 1-(1-hydroxy-7-methyl-1,3-dihydrobenzo[c][1,2]oxaborole-6-carboxamido)cyclopropane-1-carboxylate], the IC50 in experiment [1] was 21 to 999 nM. On the same count and under the same terms, the same measure for `COc1c(C(=O)N[C@H](C(=O)OCc2ccc(F)cc2)C(C)C)ccc2c1B(O)OC2` [Example 6-195, 4-fluorobenzyl (1-hydroxy-7-methoxy-1,3-dihydrobenzo[c][1,2]oxaborole-6-carbonyl)-L-valinate]: 21 to 999 nM; for `Cc1c(C(=O)N[C@H](C(=O)OCc2ccc([S+]([O-])C(C)C)cc2)C(C)C)ccc2c1B(O)OC2` (stereo partly drawn) [Example 6-089, 4-(Isopropylsulfinyl)benzyl (1-hydroxy-7-methyl-1,3-dihydrobenzo[c][1,2]oxaborole-6-carbonyl)-L-valinate]: 21 to 999 nM. In the case of `Cc1c(C(=O)N[C@H](C(=O)OC[C@@H]2CCOC2)C(C)C)ccc2c1B(O)OC2` [Example 6-234, ((R)-tetrahydrofuran-3-yl)methyl (1-hydroxy-7-methyl-1,3-dihydrobenzo[c][1,2]oxaborole-6-carbonyl)-L-valinate], in experiment [1], the IC50 was at most 20 nM. As for `Cc1c(C(=O)N[C@H](C(=O)OCCN2CCC3(CC2)COC3)C(C)C)ccc2c1B(O)OC2` [Example 6-217, 2-(2-oxa-7-azaspiro[3.5]nonan-7-yl)ethyl (1-hydroxy-7-methyl-1,3-dihydrobenzo[c][1,2]oxaborole-6-carbonyl)-L-valinate], the IC50 in experiment [1] was at least 1000 nM. Still for that read-out and setting: the same measure for `Cc1c(C(=O)N[C@H](C(=O)OC[C@H]2CCOC2)C(C)C)ccc2c1B(O)OC2` [Example 6-235, ((S)-tetrahydrofuran-3-yl)methyl (1-hydroxy-7-methyl-1,3-dihydrobenzo[c][1,2]oxaborole-6-carbonyl)-L-valinate]: at most 20 nM; for `Cc1c(C(=O)N[C@H](C(=O)O[C@@H](C)c2ccccc2)C(C)C)ccc2c1B(O)OC2` [Example 6-199, (S)-1-phenylethyl (1-hydroxy-7-methyl-1,3-dihydrobenzo[c][1,2]oxaborole-6-carbonyl)-L-valinate]: 21 to 999 nM.

Usually IC50 stands for the point on the concentration scale where inhibition reaches its midpoint.
